Assay results as given in PMC6268188, “Comparative Studies of the (Anti) Mutagenicity of Baccharis dracunculifolia and Artepillin C by the Bacterial Reverse Mutation Test” (Molecules, 2012).
Several values for one entry are separate records, joined by “and”; a condition that tells them apart may be missing. Identical values can stand only once. Like-named read-outs stand apart in the source and are kept apart here. Marks after values point to notes of the source that are not given here.

How the values were obtained:
[1] = system: S. typhimurium TA98; experiment: Antimutagenicity assay (Ames test with known mutagens), strain TA98; format: cell-based, Salmonella typhimurium
[2] = system: S. typhimurium TA100
[3] = system: S. typhimurium TA102
[4] = system: S. typhimurium TA97a
[5] = 1.37 µg/plate + B[a]P 1.0 μg/plate, TA 98, + S9
[6] = 1.37 µg/plate + NOPD 10.0 μg/plate, TA 98, − S9
[7] = 2.75 µg/plate + B[a]P 1.0 μg/plate, TA 98, + S9
[8] = 2.75 µg/plate + NOPD 10.0 μg/plate, TA 98, − S9
[9] = 5.49 µg/plate + B[a]P 1.0 μg/plate, TA 98, + S9
[10] = 5.49 µg/plate + NOPD 10.0 μg/plate, TA 98, − S9
[11] = […] + B[a]P 1.0 μg/plate, TA 98, + S9
[12] = […] + NOPD 10.0 μg/plate, TA 98, − S9
[13] = 0.69 µg/plate + AFB1 0.5 μg/plate, TA 100, + S9
[14] = 0.69 µg/plate + SA 1.25 μg/plate, TA 100, − S9
[15] = 1.37 µg/plate + AFB1 0.5 μg/plate, TA 100, + S9
[16] = 1.37 µg/plate + SA 1.25 μg/plate, TA 100, − S9
[17] = 2.75 µg/plate + AFB1 0.5 μg/plate, TA 100, + S9
[18] = 2.75 µg/plate + SA 1.25 μg/plate, TA 100, − S9
[19] = 5.49 µg/plate + AFB1 0.5 μg/plate, TA 100, + S9
[20] = 5.49 µg/plate + SA 1.25 μg/plate, TA 100, − S9
[21] = […] + SA 1.25 μg/plate, TA 100, − S9

## CC(C)=CCc1cc(/C=C/C(=O)O)cc(CC=C(C)C)c1O [ArtC, 3-{4-hydroxy-3,5-di(3-methyl-2-butenyl)phenyl}-2(E)-propenoic acid]
[1]; 0.69 µg/plate + NOPD 10.0 μg/plate, TA 98, − S9
  antimutagenic effect class: ** (moderate effect (25% - 40% inhibition))
[1]; [5]
  % inhibition: 43%
  antimutagenic effect class: *** (strong antimutagenic effect (> 40% inhibition))
[1]; [6]
  % inhibition: 38%
  Number of revertants (M ± SD)/ plate: 520 ± 18 revertants/plate
  antimutagenic effect class: ** (moderate effect (25% - 40% inhibition))
[1]; [7]
  % inhibition: 56%
  antimutagenic effect class: *** (strong antimutagenic effect (> 40% inhibition))
[1]; [8]
  % inhibition: 42%
  Number of revertants (M ± SD)/ plate: 484 ± 31 revertants/plate
  antimutagenic effect class: *** (strong antimutagenic effect (> 40% inhibition))
[1]; [9]
  % inhibition: 56%
  antimutagenic effect class: *** (strong antimutagenic effect (> 40% inhibition))
[1]; [10]
  % inhibition: 37%
  Number of revertants (M ± SD)/ plate: 532 ± 27 revertants/plate
  antimutagenic effect class: ** (moderate effect (25% - 40% inhibition))
[1]; [11]
  % inhibition: 62%
  antimutagenic effect class: *** (strong antimutagenic effect (> 40% inhibition))
[1]; [12]
  % inhibition: 41%
  antimutagenic effect class: *** (strong antimutagenic effect (> 40% inhibition))
[2]
  % inhibition: 30 ** %
  Number of revertants (M ± SD)/ plate: 1885 ± 25 revertants/plate and 1507 ± 43 revertants/plate
  antimutagenic effect class: 30 ** (key: *: no antimutagenic effect (< 25% inhibition); **: moderate effect (25% - 40% inhibition); ***: strong antimutagenic effect (> 40% inhibition))
[2]; [13]
  % inhibition: 26%
  Number of revertants (M ± SD)/ plate: 1595 ± 37 revertants/plate
[2]; [14]
  % inhibition: 16%
  Number of revertants (M ± SD)/ plate: 1833 ± 48 revertants/plate
  antimutagenic effect class: * (no antimutagenic effect (< 25% inhibition))
[2]; [15]
  % inhibition: 24%
  Number of revertants (M ± SD)/ plate: 1639 ± 33 revertants/plate
  antimutagenic effect class: * (no antimutagenic effect (< 25% inhibition))
[2]; [16]
  % inhibition: 11%
  Number of revertants (M ± SD)/ plate: 1957 ± 36 revertants/plate
  antimutagenic effect class: * (no antimutagenic effect (< 25% inhibition))
[2]; [17]
  % inhibition: 27%
  Number of revertants (M ± SD)/ plate: 1575 ± 11 revertants/plate
[2]; [18]
  % inhibition: 17%
  Number of revertants (M ± SD)/ plate: 1813 ± 24 revertants/plate
  antimutagenic effect class: * (no antimutagenic effect (< 25% inhibition))
[2]; [19]
  % inhibition: 26%
  Number of revertants (M ± SD)/ plate: 1600 ± 38 revertants/plate
[2]; [20]
  % inhibition: 21%
  Number of revertants (M ± SD)/ plate: 1727 ± 39 revertants/plate
  antimutagenic effect class: * (no antimutagenic effect (< 25% inhibition))
[2]; TA100, with metabolic activation, AFB1
  inhibition of AFB1-induced mutation (text; number = highest observed percent inhibition): did inhibit mutation
[2]; [21]
  % inhibition: 14%
  antimutagenic effect class: * (no antimutagenic effect (< 25% inhibition))
[3]; 0.69 µg/plate, TA 102, + S9
  MI (mutagenicity index): 0.9
  Number of revertants (M ± SD)/ plate: 204 ± 4 revertants/plate
[3]; 0.69 µg/plate, TA 102, − S9
  MI (mutagenicity index): 0.9
  Number of revertants (M ± SD)/ plate: 204 ± 4 revertants/plate
[3]; 1.37 µg/plate, TA 102, + S9
  MI (mutagenicity index): 1.0
  Number of revertants (M ± SD)/ plate: 213 ± 3 revertants/plate
[3]; 1.37 µg/plate, TA 102, − S9
  MI (mutagenicity index): 1.0
  Number of revertants (M ± SD)/ plate: 213 ± 3 revertants/plate
[3]; 2.75 µg/plate, TA 102, + S9
  MI (mutagenicity index): 0.9
  Number of revertants (M ± SD)/ plate: 187 ± 5 revertants/plate
[3]; 2.75 µg/plate, TA 102, − S9
  MI (mutagenicity index): 0.9
  Number of revertants (M ± SD)/ plate: 187 ± 5 revertants/plate
[3]; 5.49 µg/plate, TA 102, + S9
  MI (mutagenicity index): 1.0
  Number of revertants (M ± SD)/ plate: 215 ± 5 revertants/plate
[3]; 5.49 µg/plate, TA 102, − S9
  MI (mutagenicity index): 1.0
  Number of revertants (M ± SD)/ plate: 215 ± 5 revertants/plate
[3]; Salmonella typhimurium
  MI (mutagenicity index): 203 ± 6 (0.9)
  Number of revertants (M ± SD)/ plate: 203 ± 6 (0.9) revertants/plate
[4]; 0.69 µg/plate, TA 97, + S9
  MI (mutagenicity index): 1.2
  Number of revertants (M ± SD)/ plate: 194 ± 3 revertants/plate
[4]; 0.69 µg/plate, TA 97, − S9
  MI (mutagenicity index): 1.4
  Number of revertants (M ± SD)/ plate: 207 ± 3 revertants/plate
[4]; 1.37 µg/plate, TA 97, + S9
  MI (mutagenicity index): 1.1
  Number of revertants (M ± SD)/ plate: 174 ± 1 revertants/plate
[4]; 1.37 µg/plate, TA 97, − S9
  MI (mutagenicity index): 1.5
  Number of revertants (M ± SD)/ plate: 221 ± 6 revertants/plate
[4]; 2.75 µg/plate, TA 97, + S9
  MI (mutagenicity index): 1.1
  Number of revertants (M ± SD)/ plate: 175 ± 4 revertants/plate
[4]; 2.75 µg/plate, TA 97, − S9
  MI (mutagenicity index): 1.6
  Number of revertants (M ± SD)/ plate: 246 ± 5 revertants/plate
[4]; 5.49 µg/plate, TA 97, + S9
  MI (mutagenicity index): 1.1
  Number of revertants (M ± SD)/ plate: 175 ± 1 revertants/plate
[4]; 5.49 µg/plate, TA 97, − S9
  MI (mutagenicity index): 1.4
  Number of revertants (M ± SD)/ plate: 207 ± 5 revertants/plate
